Results on two compounds are retold here after patent US20100069346A1, “New Azetidine Derivatives as Neurokinin Receptor Antagonists for the Treatment of Gastrointestinal Diseases” (priority 2005, published 2010).

By IC50 is commonly meant the concentration that inhibits the measured activity by half. A lower IC50 goes with greater potency in that assay. What is called microsomal CLint is a measure of how fast metabolising enzymes remove a compound, apart from limits set by blood flow. Read a high microsomal CLint as faster metabolism.

One data set concerns the target T1, human NK1 receptor (Homo sapiens, UniProt P25103).
T1 construct: expressed in transfected cells; host or cells: CHO cells (AstraZeneca R&D Wilmington), cDNA in pRcCMV
The experiment in a line: FLIPR assay, inhibition of human NK1 receptor activation (intracellular Ca2+). It is filed as cell-based. The note with it: CHO cells with human NK1 receptor, agonist Substance P, read-out: pKB (NK1) (converted). The method, then: (§1) Chinese Hamster Ovary (CHO) K1 cells (obtained from ATCC) were stably transfected with the human NK2 receptor (hNK2R cDNA in pRc/CMV, Invitrogen) or the human NK3 receptor (hNK3R in pcDNA 3.1/Hygro (+)/IRES/CD8, Invitrogen vector modified at AstraZeneca EST-Bio UK, Alderley Park). The cells were transfected with the cationic lipid reagent LIPOFECTAMINE™ (Invitrogen) and selection was performed with Geneticin (G418, Invitrogen) at 1 mg/ml for the hNK2R transfected cells and with Hygromycin (Invitrogen) at 500 μg/ml for the hNK3R transfected cells. Single cell clones were collected by aid of Fluorescence Activated Cell Sorter (FACS), tested for functionality in a FLIPR assay (see below), expanded in culture and cryopreserved for future use. CHO cells stably transfected with human NK1 receptors originates from AstraZeneca R&D, Wilmington USA. Human NK1 receptor cDNA (obtained from RNA-PCR from lung tissue) was subcloned into pRcCMV (Invitrogen). Transfection was performed by Calcium Phosphate and selection with 1 mg/ml G418. […]
(§2) The activity of a compound of the invention to inhibit NK1/NK2/NK3 receptor activation measured as NK1/NK2/NK3 receptor mediated increase in intracellular Ca^2+ was assessed by the following procedure: […]

In the next data set the target is T2, human NK2 receptor (Homo sapiens, UniProt P21452).
T2 construct: expressed in transfected cells; host or cells: CHO-K1 cells (ATCC), hNK2R cDNA in pRc/CMV
T2 sequence (P21452 1-398): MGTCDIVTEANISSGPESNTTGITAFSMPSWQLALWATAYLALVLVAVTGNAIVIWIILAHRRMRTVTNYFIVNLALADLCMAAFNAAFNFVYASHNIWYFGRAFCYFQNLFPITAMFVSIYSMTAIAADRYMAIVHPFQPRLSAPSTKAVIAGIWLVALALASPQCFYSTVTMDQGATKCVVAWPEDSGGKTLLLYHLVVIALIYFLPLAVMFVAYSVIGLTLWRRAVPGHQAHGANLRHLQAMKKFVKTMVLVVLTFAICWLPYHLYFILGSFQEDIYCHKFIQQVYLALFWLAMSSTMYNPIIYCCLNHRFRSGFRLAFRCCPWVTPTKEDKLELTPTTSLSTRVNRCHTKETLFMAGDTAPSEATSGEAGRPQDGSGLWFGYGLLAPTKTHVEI
The experiment in a line: FLIPR assay, inhibition of human NK2 receptor activation (intracellular Ca2+). The note with it: CHO cells with human NK2 receptor, agonist NKA, read-out: pKB (NK2) (converted). It is filed as cell-based. Here is the method:
as §1, §2

In a further data set the target is T3, human NK3 receptor (Homo sapiens, UniProt P29371).
T3 construct: expressed in transfected cells; host or cells: CHO-K1 cells (ATCC), hNK3R in pcDNA 3.1/Hygro (+)/IRES/CD8
T3 sequence (P29371 1-465): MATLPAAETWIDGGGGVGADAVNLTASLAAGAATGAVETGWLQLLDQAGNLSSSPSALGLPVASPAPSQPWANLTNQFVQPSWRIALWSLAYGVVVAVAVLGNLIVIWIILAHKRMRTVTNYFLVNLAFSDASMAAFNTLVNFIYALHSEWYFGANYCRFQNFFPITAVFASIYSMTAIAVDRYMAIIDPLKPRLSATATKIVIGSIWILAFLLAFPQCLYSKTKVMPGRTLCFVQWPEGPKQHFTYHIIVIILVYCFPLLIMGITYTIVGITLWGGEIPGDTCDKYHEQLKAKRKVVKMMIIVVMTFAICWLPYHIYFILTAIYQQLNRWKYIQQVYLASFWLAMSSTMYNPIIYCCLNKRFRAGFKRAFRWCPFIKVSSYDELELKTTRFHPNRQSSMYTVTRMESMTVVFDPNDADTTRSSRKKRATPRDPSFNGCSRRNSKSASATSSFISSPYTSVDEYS
The data set is described as follows: FLIPR assay, inhibition of human NK3 receptor activation (intracellular Ca2+). In kind it is cell-based. The note with it: CHO cells with human NK3 receptor, agonist Pro-7-NKB, read-out: pKB (NK3) (converted). The method, then:
as §1, §2

The target in data set [1] is hERG-encoded potassium channel (Homo sapiens, UniProt Q12809). The experiment in a line: Activity against hERG (planar-array-based voltage clamp, Kiss et al.). It is filed as cell-based. The text has this: The activity of compounds according to formula I against the hERG-encoded potassium channel can be determined according to Kiss L, et al. Assay Drug Dev Technol. 1 (2003), 127-35: “High throughput ion-channel pharmacology: planar-array-based voltage clamp”.
Chain of hERG-encoded potassium channel (Q12809 whole entry): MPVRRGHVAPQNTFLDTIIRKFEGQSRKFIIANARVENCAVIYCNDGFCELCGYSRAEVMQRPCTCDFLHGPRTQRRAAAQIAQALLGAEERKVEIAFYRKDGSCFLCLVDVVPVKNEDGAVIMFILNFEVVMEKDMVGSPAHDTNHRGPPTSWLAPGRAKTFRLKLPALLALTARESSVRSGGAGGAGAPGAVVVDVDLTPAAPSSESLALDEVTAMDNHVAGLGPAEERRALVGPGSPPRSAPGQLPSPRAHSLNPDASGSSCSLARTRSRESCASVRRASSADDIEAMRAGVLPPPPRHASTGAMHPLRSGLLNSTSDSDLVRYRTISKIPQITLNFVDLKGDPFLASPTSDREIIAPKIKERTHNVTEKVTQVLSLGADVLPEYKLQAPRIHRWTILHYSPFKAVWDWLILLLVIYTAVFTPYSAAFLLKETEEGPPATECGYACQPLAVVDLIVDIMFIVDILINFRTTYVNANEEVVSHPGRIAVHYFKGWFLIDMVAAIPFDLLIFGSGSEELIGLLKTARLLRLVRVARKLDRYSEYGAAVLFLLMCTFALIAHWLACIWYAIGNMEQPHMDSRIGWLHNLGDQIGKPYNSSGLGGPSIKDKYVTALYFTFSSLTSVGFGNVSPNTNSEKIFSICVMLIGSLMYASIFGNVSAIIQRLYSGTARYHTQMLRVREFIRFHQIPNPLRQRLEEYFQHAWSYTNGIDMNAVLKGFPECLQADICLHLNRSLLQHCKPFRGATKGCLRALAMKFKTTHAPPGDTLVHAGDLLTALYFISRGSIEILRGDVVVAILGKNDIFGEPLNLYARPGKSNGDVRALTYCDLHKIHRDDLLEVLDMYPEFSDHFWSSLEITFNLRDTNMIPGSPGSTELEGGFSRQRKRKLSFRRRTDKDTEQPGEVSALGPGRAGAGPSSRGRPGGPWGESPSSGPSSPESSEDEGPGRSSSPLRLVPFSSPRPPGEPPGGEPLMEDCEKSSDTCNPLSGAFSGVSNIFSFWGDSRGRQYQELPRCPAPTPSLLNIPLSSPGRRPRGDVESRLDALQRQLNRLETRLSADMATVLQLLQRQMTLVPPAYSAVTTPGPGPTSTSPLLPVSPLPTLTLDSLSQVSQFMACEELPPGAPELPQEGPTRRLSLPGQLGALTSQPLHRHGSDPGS
In general terms: hERG is a cardiac potassium channel; its block is linked to QT prolongation.

The target of a further data set is CYP3A4 (Homo sapiens, UniProt P08684). The data set is described as follows: CYP3A4 inhibition assay (Bapiro et al.). In kind it is in vitro ADME. The text has this:
It is well known that severe problems such as toxicity may occur if plasma levels of one medication are altered by the co-administration of another drug. […] CYP (cytochrome P450) 3A4 is the most important enzyme in the human liver as a majority of oxidised drugs have been biotransformed by this enzyme. Accordingly, it is undesirable to employ a medication having a significant degree of such liver enzyme inhibiting properties. […] Thus, there is a need for a novel NK receptor antagonist with improved pharmacokinetic properties. The present invention provides compounds with CYP3A4 enzyme inhibiting properties at a low level, as comparatively high IC50 values are obtained in a CYP3A4 inhibiting assay. Said method for determining CYP3A4 inhibition is described in Bapiro et al; Drug Metab. Dispos. 29, 30-35 (2001).
The IC50 values tested according to Bapiro et al; Drug Metab. Dispos. 29, 30-35 (2001) were generally greater than 2 μM.

The nature of data set [2]: Metabolic stability in liver microsomes (HLM). To be noted: pH 7.4; human liver microsomes. In kind it is in vitro ADME. Here is the method: Stability against human microsomal metabolism in vitro is indicative of stability towards metabolism in vivo.
The metabolic stability of compounds according to formula I can be determined as described below: […]
The rate of biotransformation can be measured as either metabolite(s) formation or the rate of disappearance of the parent compound. The experimental design involves incubation of low concentrations of substrate (usually 1.0 μM) with liver microsomes (usually 0.5 mg/ml) and taking out aliquots at varying time points (usually 0, 5, 10, 15, 20, 30, 40 min.). The test compound is usually dissolved in DMSO. The DMSO concentration in the incubation mixture is usually 0.1% or less since more solvent can drastically reduce the activities of some CYP450s. Incubations are done in 100 mM potassium phosphate buffer, pH 7.4 and at 37° C. Acetonitrile or methanol is used to stop the reaction.

In data set [3] the target is T4, Human Neurokinin-2 (NK2) Receptor (Homo sapiens, UniProt P21452).
T4 sequence (P21452 1-398): T2 sequence (P21452 1-398)
The note with it: Bioorg. Med. Chem. Lett. (2003), 13, 2211-2215; cited from earlier work.

Chain of CYP3A4 (P08684 whole entry): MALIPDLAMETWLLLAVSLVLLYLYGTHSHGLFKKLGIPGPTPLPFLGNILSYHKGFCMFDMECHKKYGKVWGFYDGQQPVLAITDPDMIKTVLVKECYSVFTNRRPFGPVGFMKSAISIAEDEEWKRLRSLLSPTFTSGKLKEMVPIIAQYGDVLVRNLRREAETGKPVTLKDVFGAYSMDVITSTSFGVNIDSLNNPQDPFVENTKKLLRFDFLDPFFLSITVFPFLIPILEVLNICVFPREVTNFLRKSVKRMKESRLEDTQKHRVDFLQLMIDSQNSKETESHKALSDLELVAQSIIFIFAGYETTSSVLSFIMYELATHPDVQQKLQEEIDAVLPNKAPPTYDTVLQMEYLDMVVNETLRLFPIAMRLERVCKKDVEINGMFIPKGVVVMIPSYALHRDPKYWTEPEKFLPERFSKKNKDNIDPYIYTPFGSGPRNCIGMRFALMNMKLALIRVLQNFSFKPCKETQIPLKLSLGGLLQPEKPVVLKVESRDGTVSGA
T1 sequence (P25103 whole entry): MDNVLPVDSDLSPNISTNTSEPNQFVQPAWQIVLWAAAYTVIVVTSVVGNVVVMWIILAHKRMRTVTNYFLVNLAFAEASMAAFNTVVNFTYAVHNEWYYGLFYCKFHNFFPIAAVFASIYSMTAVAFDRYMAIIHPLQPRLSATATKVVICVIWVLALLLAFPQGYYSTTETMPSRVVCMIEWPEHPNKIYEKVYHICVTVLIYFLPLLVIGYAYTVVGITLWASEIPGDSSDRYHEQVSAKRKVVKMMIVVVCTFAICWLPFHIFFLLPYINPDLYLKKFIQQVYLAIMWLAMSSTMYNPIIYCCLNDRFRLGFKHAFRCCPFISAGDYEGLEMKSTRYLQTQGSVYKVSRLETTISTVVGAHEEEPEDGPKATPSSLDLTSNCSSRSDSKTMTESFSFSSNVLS

In the case of `CN(C[C@@H](CCN1CC(N2CCOC[C@H]2CCO)C1)c1ccc(F)cc1)C(=O)c1cc(Br)cc(C(F)(F)F)c1` [Ex 5, 3-Bromo-N-((2S)-2-(4-fluorophenyl)-4-{3-[(3R)-3-(2-hydroxyethyl)morpholin-4-yl]azetidin-1-yl}butyl)-N-methyl-5-(trifluoromethyl)benzamide], the Kb was 7.94 nM on human NK1 receptor, 25.1 nM on human NK2 receptor and 20 nM at human NK3 receptor. The values for the IC50 (in data set [1]; at CYP3A4) were 18800 nM and 19200 nM, respectively. In addition, the microsomal CLint at 1 μM in data set [2] was determined as 40.7 µL/min/mg.
`CN(CC(CCN1CC(N2CCOCC2)C1)c1ccc(Cl)c(Cl)c1)C(=O)c1ccccc1` (stereo not shown) [N-[2-(3,4-dichlorophenyl)-4-(3-morpholin-4-ylazetidin-1-yl)butyl]-N-methylbenzamide]: in data set [3], the “functional NK2 receptor antagonism” value is on record as “functional NK2 receptor antagonistic properties”.
